Reference: ChEMBL document CHEMBL3352668, “Synthesis and antibacterial evaluation of new, unsymmetrical triaryl bisamidine compounds” (Bioorg Med Chem Lett, 2014)
In brackets after ≈: the same amount, converted by molar mass.

Experiments:
Enterococcus faecalis = test: Antimicrobial activity against vancomycin-resistant Enterococcus faecalis ATCC 51575 by CLSI method; assay type: functional; details: Enterococcus faecalis, ATCC 51575; read-out: MIC
Bacillus anthracis = test: Antimicrobial activity against Bacillus anthracis Sterne by CLSI method; assay type: functional
Pseudomonas aeruginosa [1] = test: Antimicrobial activity against Pseudomonas aeruginosa PAO1 by CLSI method; assay type: functional; details: Pseudomonas aeruginosa, PAO1; read-out: MIC
Klebsiella pneumoniae = test: Antimicrobial activity against Klebsiella pneumoniae 13882 by CLSI method; assay type: functional; details: Klebsiella pneumoniae, 13882; read-out: MIC
Escherichia coli [2] = test: Antimicrobial activity against TolC-deficient Escherichia coli by CLSI method; assay type: functional
Staphylococcus aureus = test: Antimicrobial activity against methicillin-resistant Staphylococcus aureus 1094 by CLSI method; assay type: functional; details: Staphylococcus aureus, 1094; read-out: MIC
Bacillus subtilis = test: Antimicrobial activity against Bacillus subtilis BD54 by CLSI method; assay type: functional; details: Bacillus subtilis, BD54; read-out: MIC
Escherichia coli [3] = test: Antimicrobial activity against TolC+ Escherichia coli 700 by CLSI method; assay type: functional; details: Escherichia coli, 700; read-out: MIC
[4] = Cytotoxicity against human HeLa cells by MTS assay; assay type: cell-based; details: HeLa cells
Pseudomonas aeruginosa [5] = test: Antimicrobial activity against mexAB-oprM deficient Pseudomonas aeruginosa PAO1 harboring by CLSI method; assay type: functional
[6] = Bacillus anthracis, Sterne, read-out: MIC
[7] = Escherichia coli, read-out: MIC

Row | Structure (SMILES) | MIC (Enterococcus faecalis) [µg/mL] | MIC (Bacillus anthracis) [µg/mL] | MIC (Pseudomonas aeruginosa [1]) [µg/mL] | MIC (Klebsiella pneumoniae) [µg/mL] | MIC (Escherichia coli [2]) [µg/mL] | MIC (Staphylococcus aureus) [µg/mL] | MIC (Bacillus subtilis) [µg/mL] | MIC (Escherichia coli [3]) [µg/mL] | CC50 [4] [µg/mL] | MIC (Bacillus anthracis; [6]) [µg/mL] | MIC (Escherichia coli [2]; [7]) [µg/mL] | MIC (Pseudomonas aeruginosa [5]) [µg/mL]
1 | CC1CNC(c2ccc3cc(-c4ccc(-c5cc6ccc(C7=NC(C)CN7)cc6o5)cc4)[nH]c3c2)=N1 (stereo in doubt) | 0.39 (≈ 0.824 µM) | 0.31 (≈ 0.655 µM) | 60 (≈ 127 µM) | 2.5 (≈ 5.28 µM) | 0.63 (≈ 1.33 µM) | 0.31 (≈ 0.655 µM) | 0.2 (≈ 0.422 µM) | 0.63 (≈ 1.33 µM) | 5.7 (≈ 12 µM) | – | – | –
2 | c1cc2cc(-c3ccc(-c4cc5ccc(C6=NCCN6)cc5o4)s3)[nH]c2cc1C1=NCCN1 | 1.56 (≈ 3.45 µM) | – | 66.7 (≈ 148 µM) | 60 (≈ 133 µM) | – | 0.94 (≈ 2.08 µM) | 0.16 (≈ 0.354 µM) | 2.8 (≈ 6.2 µM) | 182 (≈ 403 µM) | 1.09 (≈ 2.41 µM) | 0.27 (≈ 0.598 µM) | –
3 | c1cc2cc(-c3ccc(-c4cn5ccc(C6=NCCN6)cc5n4)cc3)[nH]c2cc1C1=NCCN1 | > 80 | – | 40 (≈ 89.8 µM) | 5 (≈ 11.2 µM) | – | > 80 | 2.5 (≈ 5.61 µM) | 2.5 (≈ 5.61 µM) | 2.5 (≈ 5.61 µM) | > 80 | 0.31 (≈ 0.696 µM) | > 80
4 | FC1CN=C(c2ccc3cc(-c4ccc(-c5cc6ccc(C7=NCC(F)CN7)cc6o5)cc4)[nH]c3c2)NC1 (stereo unspecified) | 0.31 (≈ 0.608 µM) | – | 5 (≈ 9.81 µM) | 0.63 (≈ 1.24 µM) | – | 0.31 (≈ 0.608 µM) | 0.16 (≈ 0.314 µM) | 1.25 (≈ 2.45 µM) | 47.5 (≈ 93.2 µM) | 0.31 (≈ 0.608 µM) | 0.27 (≈ 0.53 µM) | 2.5 (≈ 4.91 µM)
5 | c1cc2cc(-c3ccc(-c4cc5ccc(C6=NCCCN6)cc5s4)cc3)[nH]c2cc1C1=NCCCN1 | 0.31 (≈ 0.633 µM) | – | 10 (≈ 20.4 µM) | 1.25 (≈ 2.55 µM) | – | 0.31 (≈ 0.633 µM) | 0.1 (≈ 0.204 µM) | 0.63 (≈ 1.29 µM) | 5.9 (≈ 12 µM) | 0.16 (≈ 0.327 µM) | 0.31 (≈ 0.633 µM) | 10 (≈ 20.4 µM)
6 | Cc1c(-c2ccc(-c3cc4ccc(C5=NCCCN5)cc4o3)cc2)[nH]c2cccc(C#N)c12 | 5 (≈ 11.6 µM) | – | 40 (≈ 92.9 µM) | 20 (≈ 46.5 µM) | – | 5 (≈ 11.6 µM) | 2.5 (≈ 5.81 µM) | 20 (≈ 46.5 µM) | – | 2.5 (≈ 5.81 µM) | 10 (≈ 23.2 µM) | –
7 | c1cc2oc(-c3ccc(-c4cc5ccc(C6=NCCCN6)cc5[nH]4)cc3)cc2cc1C1=NCCCN1 | 0.08 (≈ 0.169 µM) | – | 2.5 (≈ 5.28 µM) | 1.25 (≈ 2.64 µM) | – | 0.31 (≈ 0.655 µM) | 0.08 (≈ 0.169 µM) | 0.63 (≈ 1.33 µM) | 8.5 (≈ 17.9 µM) | 0.08 (≈ 0.169 µM) | 0.39 (≈ 0.824 µM) | 2.5 (≈ 5.28 µM)
8 | Fc1cc(-c2cc3ccc(C4=NCCCN4)cc3[nH]2)ccc1-c1cc2ccc(C3=NCCCN3)cc2o1 | 0.16 (≈ 0.325 µM) | – | 2.5 (≈ 5.09 µM) | 0.63 (≈ 1.28 µM) | – | 0.16 (≈ 0.325 µM) | 0.08 (≈ 0.163 µM) | 0.63 (≈ 1.28 µM) | 14.3 (≈ 29.1 µM) | 0.08 (≈ 0.163 µM) | 0.31 (≈ 0.631 µM) | –
9 | c1cc2cc(-c3ccc(-c4nc5ccc(C6=NCCN6)cc5[nH]4)cc3)[nH]c2cc1C1=NCCN1 | 0.63 (≈ 1.41 µM) | – | 20 (≈ 44.9 µM) | 20 (≈ 44.9 µM) | – | 1.25 (≈ 2.81 µM) | 0.16 (≈ 0.359 µM) | 10 (≈ 22.4 µM) | 8.6 (≈ 19.3 µM) | 5 (≈ 11.2 µM) | 0.31 (≈ 0.696 µM) | 40 (≈ 89.8 µM)
10 | CC1CN=C(c2ccc3cc(-c4ccc(-c5cc6ccc(C7=NCC(C)CN7)cc6o5)cn4)[nH]c3c2)NC1 (stereo unspecified) | 0.63 (≈ 1.25 µM) | – | 5 (≈ 9.95 µM) | 2.5 (≈ 4.97 µM) | – | 0.31 (≈ 0.617 µM) | 0.08 (≈ 0.159 µM) | 1.88 (≈ 3.74 µM) | 2.2 (≈ 4.38 µM) | 0.63 (≈ 1.25 µM) | 0.27 (≈ 0.537 µM) | –
11 | NCCCNc1cc(-c2cc3ccc(C4=NCCCN4)cc3[nH]2)ccc1-c1cc2ccc(C3=NCCCN3)cc2o1 | 1.25 (≈ 2.29 µM) | – | 2.5 (≈ 4.58 µM) | 1.25 (≈ 2.29 µM) | – | 0.63 (≈ 1.15 µM) | 0.24 (≈ 0.44 µM) | 2.5 (≈ 4.58 µM) | 4.6 (≈ 8.43 µM) | 0.63 (≈ 1.15 µM) | 0.63 (≈ 1.15 µM) | –
12 | c1cc2cc(-c3ccc(-c4nc5ccc(C6=NCCCN6)cc5[nH]4)cc3)[nH]c2cc1C1=NCCCN1 | 0.31 (≈ 0.655 µM) | – | 2.5 (≈ 5.28 µM) | 5 (≈ 10.6 µM) | – | 0.31 (≈ 0.655 µM) | 0.08 (≈ 0.169 µM) | 2.5 (≈ 5.28 µM) | 27.6 (≈ 58.3 µM) | 0.31 (≈ 0.655 µM) | 0.31 (≈ 0.655 µM) | 2.5 (≈ 5.28 µM)
13 | c1cc2cc(-c3ccc(-c4cn5cc(C6=NCCN6)ccc5n4)cc3)[nH]c2cc1C1=NCCN1 | 20 (≈ 44.9 µM) | – | > 80 | 80 (≈ 180 µM) | – | 80 (≈ 180 µM) | 0.31 (≈ 0.696 µM) | 40 (≈ 89.8 µM) | – | 40 (≈ 89.8 µM) | 0.63 (≈ 1.41 µM) | –
14 | c1cc2cc(-c3ccc(-c4cc5ccc(C6=NCCCN6)cc5o4)cc3)[nH]c2cc1C1=NCCCN1 | 0.39 (≈ 0.824 µM) | – | 0.63 (≈ 1.33 µM) | 0.55 (≈ 1.16 µM) | – | 0.1 (≈ 0.211 µM) | 0.14 (≈ 0.296 µM) | 0.63 (≈ 1.33 µM) | 26 (≈ 54.9 µM) | 5 (≈ 10.6 µM) | 0.16 (≈ 0.338 µM) | 0.47 (≈ 0.992 µM)
